Read-outs that look alike come from different tables or passages of the source.
Columns and labels:
[1] = biological target: T1, Ikaros (Homo sapiens, UniProt Q13422); assay: Helios Cellular Degradation Assay, Ikaros readout (flow cytometry, Ikaros-Alexa488 antibody staining, 72 h); format: cell-based; details: Jurkat cells, 72 h incubation, flow cytometry; for Dmax: Jurkat, read-out: Ikaros Dmax
T1 construct: fluorescently labelled antibodies against Helios and Ikaros; endogenous in cells; host or cells: Jurkat cells
How it was run: (§1)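 Flow cytometry of fixed, permeabilized Jurkat cells stained with anti-Helios-PE and anti-Ikaros-Alexa488 (1 h, room temperature) measured remaining protein. Treatment lasted 72 h at 37 °C, 5% CO2, at 80,000 cells/well in RPMI with 10% FBS.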

[2] = biological target: T2, Helios (Homo sapiens, UniProt Q96SW2+Q9UKS7); assay: Helios Cellular Degradation Assay (flow cytometry, Helios-PE antibody staining, 72 h); format: cell-based; details: for Dmax: Jurkat, read-out: Helios Dmax
T2 construct: fluorescently labelled antibodies against Helios and Ikaros; endogenous in cells; host or cells: Jurkat cells
How it was run: as §1

[3] = Jurkat cells, 72 h incubation, flow cytometry

T1 sequence (Q96SW2 whole entry partner): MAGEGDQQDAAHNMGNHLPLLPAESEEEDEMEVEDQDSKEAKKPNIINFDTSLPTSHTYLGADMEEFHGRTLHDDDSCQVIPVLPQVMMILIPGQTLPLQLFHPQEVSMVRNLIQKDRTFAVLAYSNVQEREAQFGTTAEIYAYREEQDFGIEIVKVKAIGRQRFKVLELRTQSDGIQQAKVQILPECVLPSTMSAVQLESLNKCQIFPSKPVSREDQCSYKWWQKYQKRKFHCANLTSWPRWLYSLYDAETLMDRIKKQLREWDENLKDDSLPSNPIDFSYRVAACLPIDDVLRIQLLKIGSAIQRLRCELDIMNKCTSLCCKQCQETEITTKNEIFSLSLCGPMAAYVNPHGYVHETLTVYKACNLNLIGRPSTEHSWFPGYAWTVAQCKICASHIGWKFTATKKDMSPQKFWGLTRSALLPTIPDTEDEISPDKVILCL
T1 sequence (Q16531 whole entry partner): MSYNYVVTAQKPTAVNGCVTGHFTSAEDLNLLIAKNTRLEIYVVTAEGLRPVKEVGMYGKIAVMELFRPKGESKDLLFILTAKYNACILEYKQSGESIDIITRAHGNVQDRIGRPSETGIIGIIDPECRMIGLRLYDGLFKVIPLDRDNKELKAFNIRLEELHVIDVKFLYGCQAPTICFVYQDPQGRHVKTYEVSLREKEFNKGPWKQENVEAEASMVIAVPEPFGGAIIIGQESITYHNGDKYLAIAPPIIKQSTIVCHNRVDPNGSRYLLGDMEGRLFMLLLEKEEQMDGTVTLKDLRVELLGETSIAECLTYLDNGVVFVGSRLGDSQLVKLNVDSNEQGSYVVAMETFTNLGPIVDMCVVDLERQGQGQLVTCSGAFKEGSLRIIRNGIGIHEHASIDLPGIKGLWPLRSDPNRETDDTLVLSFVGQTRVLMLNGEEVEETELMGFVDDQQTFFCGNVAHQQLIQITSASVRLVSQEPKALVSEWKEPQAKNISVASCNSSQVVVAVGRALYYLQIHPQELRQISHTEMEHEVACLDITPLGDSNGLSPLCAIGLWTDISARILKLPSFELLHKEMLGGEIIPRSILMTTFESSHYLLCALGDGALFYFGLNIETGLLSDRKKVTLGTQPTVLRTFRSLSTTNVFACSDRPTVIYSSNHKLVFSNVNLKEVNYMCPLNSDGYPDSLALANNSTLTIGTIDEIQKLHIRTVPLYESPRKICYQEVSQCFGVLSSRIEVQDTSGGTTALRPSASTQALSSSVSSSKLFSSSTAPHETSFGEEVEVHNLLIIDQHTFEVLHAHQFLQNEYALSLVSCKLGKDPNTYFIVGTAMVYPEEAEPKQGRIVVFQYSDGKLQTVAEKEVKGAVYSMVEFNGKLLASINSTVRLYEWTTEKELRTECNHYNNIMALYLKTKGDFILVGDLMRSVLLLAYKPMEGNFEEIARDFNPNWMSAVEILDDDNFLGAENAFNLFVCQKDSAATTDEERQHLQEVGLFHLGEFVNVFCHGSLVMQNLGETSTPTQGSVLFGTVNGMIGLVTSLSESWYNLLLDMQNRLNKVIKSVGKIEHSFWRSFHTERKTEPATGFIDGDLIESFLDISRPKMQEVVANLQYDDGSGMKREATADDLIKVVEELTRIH
T1 sequence (Q13422 whole entry): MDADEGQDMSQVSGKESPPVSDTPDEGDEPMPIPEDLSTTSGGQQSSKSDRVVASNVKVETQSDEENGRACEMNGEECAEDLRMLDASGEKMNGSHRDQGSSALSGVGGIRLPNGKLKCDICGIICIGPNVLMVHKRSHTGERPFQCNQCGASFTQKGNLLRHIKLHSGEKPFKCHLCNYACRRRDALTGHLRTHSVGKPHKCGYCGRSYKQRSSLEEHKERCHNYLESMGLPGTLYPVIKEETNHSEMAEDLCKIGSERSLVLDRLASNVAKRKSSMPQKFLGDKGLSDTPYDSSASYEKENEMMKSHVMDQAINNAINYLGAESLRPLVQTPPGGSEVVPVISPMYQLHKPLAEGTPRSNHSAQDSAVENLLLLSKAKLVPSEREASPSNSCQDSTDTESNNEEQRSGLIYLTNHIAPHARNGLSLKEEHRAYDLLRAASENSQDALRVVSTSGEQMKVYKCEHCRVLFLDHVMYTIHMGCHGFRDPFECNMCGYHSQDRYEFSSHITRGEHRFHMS
T2 sequence (Q9UKS7 whole entry): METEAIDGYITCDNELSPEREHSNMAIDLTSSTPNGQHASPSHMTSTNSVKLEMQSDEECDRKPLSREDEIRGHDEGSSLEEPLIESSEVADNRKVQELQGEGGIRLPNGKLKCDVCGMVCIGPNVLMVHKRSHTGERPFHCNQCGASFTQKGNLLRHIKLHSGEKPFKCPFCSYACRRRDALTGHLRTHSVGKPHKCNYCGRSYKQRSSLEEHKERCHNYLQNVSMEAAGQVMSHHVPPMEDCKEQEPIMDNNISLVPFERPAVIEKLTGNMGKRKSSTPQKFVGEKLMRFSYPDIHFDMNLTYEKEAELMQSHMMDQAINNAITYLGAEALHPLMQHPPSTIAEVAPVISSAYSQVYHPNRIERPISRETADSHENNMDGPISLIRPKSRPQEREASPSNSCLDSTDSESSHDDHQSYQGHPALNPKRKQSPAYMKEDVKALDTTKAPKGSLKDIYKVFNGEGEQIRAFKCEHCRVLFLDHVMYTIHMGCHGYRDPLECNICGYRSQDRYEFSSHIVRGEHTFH
T2 sequence (Q96SW2 whole entry): as the sequence (Q96SW2 whole entry partner) above
T2 sequence (Q16531 whole entry partner): as the sequence (Q16531 whole entry partner) above

Structure (SMILES)	DC50 [1] [nM]	Dmax [1] [%]	DC50 [2, 3] [nM]	Dmax [2, 3] [%]	Dmax [2] [%]
O=C1CCC(N2Cc3cc(-c4cc(CNCCCn5ccnc5)ccn4)ccc3C2=O)C(=O)N1 (centres unmarked) [Example 113, 3-(5-(4-(((3-(1H-imidazol-1-yl)propyl)amino)methyl)pyridin-2-yl)-1-oxoisoindolin-2-yl)piperidine-2,6-dione]	> 10000	8	287	81	
O=C1CCC(N2Cc3cc(-c4cc(CNCCCN5CCCC5=O)ccn4)ccc3C2=O)C(=O)N1 (centres unmarked) [Example 115, 3-(1-oxo-5-(4-(((3-(2-oxopyrrolidin-1-yl)propyl)amino)methyl)pyridin-2-yl)isoindolin-2-yl)piperidine-2,6-dione]	> 10000	6	528	78	
CCNCc1ccnc(-c2ccc3c(c2)CN(C2CCC(=O)NC2=O)C3=O)c1 (centres unmarked) [Example 116, 3-(5-(4-((ethylamino)methyl)pyridin-2-yl)-1-oxoisoindolin-2-yl)piperidine-2,6-dione]	> 10000	12	25	88	
CC1(C)CCN(Cc2ccnc(-c3ccc4c(c3)CN(C3CCC(=O)NC3=O)C4=O)c2)C1 (centres unmarked) [Example 118, 3-(5-(4-((3,3-dimethylpyrrolidin-1-yl)methyl)pyridin-2-yl)-1-oxoisoindolin-2-yl)piperidine-2,6-dione]	> 10000	12	11	90	
CC1CCC(C)N1Cc1ccnc(-c2ccc3c(c2)CN(C2CCC(=O)NC2=O)C3=O)c1 (centres unmarked) [Example 119, 3-(5-(4-((2,5-dimethylpyrrolidin-1-yl)methyl)pyridin-2-yl)-1-oxoisoindolin-2-yl)piperidine-2,6-dione]	> 10000	3	2360	53	
C[C@@H]1CCC[C@H](C)N1Cc1ccnc(-c2ccc3c(c2)CN(C2CCC(=O)NC2=O)C3=O)c1 (stereo partly drawn) [Example 120, 3-(5-(4-(((2R,6S)-2,6-dimethylpiperidin-1-yl)methyl)pyridin-2-yl)-1-oxoisoindolin-2-yl)piperidine-2,6-dione]	> 10000	3	85	84	
CC1(c2ccc(N)cc2)CCN(Cc2ccnc(-c3ccc4c(c3)CN(C3CCC(=O)NC3=O)C4=O)c2)CC1 (centres unmarked) [Example 121, 3-(5-(4-((4-(4-aminophenyl)-4-methylpiperidin-1-yl)methyl)pyridin-2-yl)-1-oxoisoindolin-2-yl)piperidine-2,6-dione]	> 10000	19	24		77
O=C1CCC(N2Cc3cc(-c4cc(CNCC5(O)CCCCC5)ccn4)ccc3C2=O)C(=O)N1 (centres unmarked) [Example 124, 3-(5-(4-((((1-hydroxycyclohexyl)methyl)amino)methyl)pyridin-2-yl)-1-oxoisoindolin-2-yl)piperidine-2,6-dione]	> 10000	11	58	95	
C[C@@H]1CCCN1Cc1ccnc(-c2ccc3c(c2)CN(C2CCC(=O)NC2=O)C3=O)c1 (stereo partly drawn) [Example 125, 3-(5-(4-(((R)-2-methylpyrrolidin-1-yl)methyl)pyridin-2-yl)-1-oxoisoindolin-2-yl) piperidine-2,6-dione]	> 10000	8	16	93	
CC1CC(NCc2ccnc(-c3ccc4c(c3)CN(C3CCC(=O)NC3=O)C4=O)c2)CCO1 (centres unmarked) [Example 126, 3-(5-(4-(((2-methyltetrahydro-2H-pyran-4-yl)amino)methyl)pyridin-2-yl)-1-oxoisoindolin-2-yl) piperidine-2,6-dione]	> 10000	22	82	99	
O=C1CCC(N2Cc3cc(-c4cc(CNCCCCO)ccn4)ccc3C2=O)C(=O)N1 (centres unmarked) [Example 128, 3-(5-(4-(((4-hydroxybutyl)amino)methyl)pyridin-2-yl)-1-oxoisoindolin-2-yl)piperidine-2,6-dione]	> 10000	28	93	94	
O=C1CCC(N2Cc3cc(-c4cc(CNCC5CCO5)ccn4)ccc3C2=O)C(=O)N1 (centres unmarked) [Example 129, 3-(5-(4-(((oxetan-2-ylmethyl)amino)methyl)pyridin-2-yl)-1-oxoisoindolin-2-yl)piperidine-2,6-dione]	> 10000	2	232	74	
CC(C)OC1CN(Cc2ccnc(-c3ccc4c(c3)CN(C3CCC(=O)NC3=O)C4=O)c2)C1 (centres unmarked) [Example 130, 3-(5-(4-((3-isopropoxyazetidin-1-yl)methyl)pyridin-2-yl)-1-oxoisoindolin-2-yl)piperidine-2,6-dione]	> 10000	13	244	56	
Cc1ccc(S(=O)(=O)C2CCN(Cc3ccnc(-c4ccc5c(c4)CN(C4CCC(=O)NC4=O)C5=O)c3)CC2)cc1 (centres unmarked) [Example 132, 3-(1-oxo-5-(4-((4-tosylpiperidin-1-yl)methyl)pyridin-2-yl)isoindolin-2-yl)piperidine-2,6-dione]	> 10000	13	> 10000	28	
O=C1CCC(N2Cc3cc(-c4cc(CN5CCC[C@@H]5c5ccccc5)ccn4)ccc3C2=O)C(=O)N1 (stereo partly drawn) [Example 134, 3-(1-oxo-5-(4-(((R)-2-phenylpyrrolidin-1-yl)methyl)pyridin-2-yl)isoindolin-2-yl)piperidine-2,6-dione]	> 10000	19	16	95	
O=C1CCC(N2Cc3cc(-c4cc(CN5CCC[C@@H](c6ccccc6)C5)ccn4)ccc3C2=O)C(=O)N1 (stereo partly drawn) [Example 135, 3-(1-oxo-5-(4-(((S)-3-phenylpiperidin-1-yl)methyl)pyridin-2-yl)isoindolin-2-yl)piperidine-2,6-dione]	> 10000	4	1310	60	
C[C@@H](c1ccccc1)N(C)Cc1ccnc(-c2ccc3c(c2)CN(C2CCC(=O)NC2=O)C3=O)c1 (stereo partly drawn) [Example 136, 3-(5-(4-((methyl((S)-1-phenylethyl)amino)methyl)pyridin-2-yl)-1-oxoisoindolin-2-yl)piperidine-2,6-dione]	> 10000	0	84	62	

More lines, main results first:

DC50 [1] [nM]	Dmax [1] [%]	DC50 [2, 3] [nM]	Dmax [2, 3] [%]	Structure (SMILES)	Dmax [2] [%]
> 10000	2	921	74	COC(=O)CCNCc1ccnc(-c2ccc3c(c2)CN(C2CCC(=O)NC2=O)C3=O)c1 (centres unmarked) [Example 112, methyl 3-(((2-(2-(2,6-dioxopiperidin-3-yl)-1-oxoisoindolin-5-yl)pyridin-4-yl)methyl)amino)propanoate]	
> 10000	2	63	83	O=C1CCC(N2Cc3cc(-c4cc(CNCCCN5CCOCC5)ccn4)ccc3C2=O)C(=O)N1 (centres unmarked) [Example 114, 3-(5-(4-(((3-morpholinopropyl)amino)methyl)pyridin-2-yl)-1-oxoisoindolin-2-yl)piperidine-2,6-dione]	
> 10000	3	53	77	CC1(C)CCCN1Cc1ccnc(-c2ccc3c(c2)CN(C2CCC(=O)NC2=O)C3=O)c1 (centres unmarked) [Example 117, 3-(5-(4-((2,2-dimethylpyrrolidin-1-yl)methyl)pyridin-2-yl)-1-oxoisoindolin-2-yl)piperidine-2,6-dione]	
> 10000	4	14	88	C[C@@H](NCc1ccnc(-c2ccc3c(c2)CN(C2CCC(=O)NC2=O)C3=O)c1)c1ccccc1 (stereo partly drawn) [Example 122, 3-(1-oxo-5-(4-((((R)-1-phenylethyl)amino)methyl)pyridin-2-yl)isoindolin-2-yl)piperidine-2,6-dione]	
> 10000	8	7	92	C[C@H](NCc1ccnc(-c2ccc3c(c2)CN(C2CCC(=O)NC2=O)C3=O)c1)c1ccccc1 (stereo partly drawn) [Example 123, 3-(1-oxo-5-(4-((((S)-1-phenylethyl)amino)methyl)pyridin-2-yl)isoindolin-2-yl) piperidine-2,6-dione]	
> 10000	6	35	84	O=C1CCC(N2Cc3cc(-c4cc(CN5CCC6(CC5)CC6)ccn4)ccc3C2=O)C(=O)N1 (centres unmarked) [Example 127, 3-(5-(4-((6-azaspiro[2.5]octan-6-yl)methyl)pyridin-2-yl)-1-oxoisoindolin-2-yl)piperidine-2,6-dione]	
> 10000	9	14	83	O=C1CCC(N2Cc3cc(-c4cc(CN[C@H](CCO)c5ccccc5)ccn4)ccc3C2=O)C(=O)N1 (stereo partly drawn) [Example 131, 3-(5-(4-((((R)-3-hydroxy-1-phenylpropyl)amino)methyl)pyridin-2-yl)-1-oxoisoindolin-2-yl)piperidine-2,6-dione]	
> 10000	7	75	84	O=C1CCC(N2Cc3cc(-c4cc(CN5CCC[C@H]5c5ccccc5)ccn4)ccc3C2=O)C(=O)N1 (stereo partly drawn) [Example 133, 3-(1-oxo-5-(4-(((S)-2-phenylpyrrolidin-1-yl)methyl)pyridin-2-yl)isoindolin-2-yl)piperidine-2,6-dione]	
> 10000	8	98	67	C[C@H](c1ccccc1)N(C)Cc1ccnc(-c2ccc3c(c2)CN(C2CCC(=O)NC2=O)C3=O)c1 (stereo partly drawn) [Example 137, 3-(5-(4-((methyl((R)-1-phenylethyl)amino)methyl)pyridin-2-yl)-1-oxoisoindolin-2-yl)piperidine-2,6-dione]	
